According to ChEMBL document CHEMBL6074668 (J Med Chem, 2024):
Active and inactive are the calls of the source. The rule behind the calls is not given here.

Assays:
[1] = target: T1, Alpha-2C adrenergic receptor (Homo sapiens, UniProt P18825); assay: Binding affinity to alpha2C adrenergic receptor (unknown origin) by radioligand displacement assay
T1 sequence (P18825 whole entry): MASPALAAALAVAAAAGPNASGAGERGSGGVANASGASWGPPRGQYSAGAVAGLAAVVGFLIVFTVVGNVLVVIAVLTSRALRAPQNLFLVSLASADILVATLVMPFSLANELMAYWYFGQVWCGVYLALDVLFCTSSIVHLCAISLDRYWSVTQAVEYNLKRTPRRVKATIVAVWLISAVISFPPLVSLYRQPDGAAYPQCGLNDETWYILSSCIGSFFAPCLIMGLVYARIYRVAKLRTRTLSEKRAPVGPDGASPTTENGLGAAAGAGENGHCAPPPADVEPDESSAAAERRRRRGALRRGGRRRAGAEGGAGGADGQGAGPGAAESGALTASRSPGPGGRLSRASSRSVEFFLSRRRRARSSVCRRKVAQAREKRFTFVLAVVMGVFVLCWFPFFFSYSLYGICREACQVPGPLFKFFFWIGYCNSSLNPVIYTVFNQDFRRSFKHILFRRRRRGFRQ

[2] = target: T2, Alpha-1B adrenergic receptor (Homo sapiens, UniProt P35368); assay: Binding affinity to alpha1B adrenergic receptor (unknown origin) by radioligand displacement assay
T2 sequence (P35368 whole entry): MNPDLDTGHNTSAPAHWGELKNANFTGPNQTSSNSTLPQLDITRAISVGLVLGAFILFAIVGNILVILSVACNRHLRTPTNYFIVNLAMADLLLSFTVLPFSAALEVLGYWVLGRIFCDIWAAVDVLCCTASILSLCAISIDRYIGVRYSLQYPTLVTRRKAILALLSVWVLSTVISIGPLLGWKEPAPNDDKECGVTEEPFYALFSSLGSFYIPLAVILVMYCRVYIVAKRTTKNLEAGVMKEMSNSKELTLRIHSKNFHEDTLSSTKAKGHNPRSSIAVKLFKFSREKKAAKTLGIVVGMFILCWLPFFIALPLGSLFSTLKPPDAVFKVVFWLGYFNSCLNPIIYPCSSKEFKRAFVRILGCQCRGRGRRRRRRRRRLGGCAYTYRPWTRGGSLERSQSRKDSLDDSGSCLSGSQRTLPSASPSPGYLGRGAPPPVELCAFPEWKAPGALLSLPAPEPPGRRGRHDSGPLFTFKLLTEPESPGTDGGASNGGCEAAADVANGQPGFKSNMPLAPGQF

[3] = target: T3, Alpha-2A adrenergic receptor (Homo sapiens, UniProt P08913); assay: Binding affinity to alpha2A adrenergic receptor (unknown origin) by radioligand displacement assay
T3 sequence (P08913 whole entry): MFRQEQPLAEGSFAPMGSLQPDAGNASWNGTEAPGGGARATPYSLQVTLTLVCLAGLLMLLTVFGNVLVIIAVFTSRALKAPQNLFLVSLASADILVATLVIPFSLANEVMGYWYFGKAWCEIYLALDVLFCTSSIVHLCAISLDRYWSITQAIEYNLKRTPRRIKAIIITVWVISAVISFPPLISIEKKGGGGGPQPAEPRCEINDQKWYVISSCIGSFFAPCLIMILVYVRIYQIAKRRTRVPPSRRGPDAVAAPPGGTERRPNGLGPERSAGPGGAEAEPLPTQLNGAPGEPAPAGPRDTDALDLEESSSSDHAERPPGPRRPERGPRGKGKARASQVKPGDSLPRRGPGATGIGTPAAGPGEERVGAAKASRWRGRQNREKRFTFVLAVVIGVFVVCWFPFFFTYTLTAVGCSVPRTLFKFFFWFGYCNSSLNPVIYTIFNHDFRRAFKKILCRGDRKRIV

[4] = target: 5-hydroxytryptamine receptor 5A (Homo sapiens, UniProt P47898); assay: Binding affinity to 5HT5A receptor (unknown origin) by radioligand displacement assay
5-hydroxytryptamine receptor 5A, sequence (P47898 whole entry): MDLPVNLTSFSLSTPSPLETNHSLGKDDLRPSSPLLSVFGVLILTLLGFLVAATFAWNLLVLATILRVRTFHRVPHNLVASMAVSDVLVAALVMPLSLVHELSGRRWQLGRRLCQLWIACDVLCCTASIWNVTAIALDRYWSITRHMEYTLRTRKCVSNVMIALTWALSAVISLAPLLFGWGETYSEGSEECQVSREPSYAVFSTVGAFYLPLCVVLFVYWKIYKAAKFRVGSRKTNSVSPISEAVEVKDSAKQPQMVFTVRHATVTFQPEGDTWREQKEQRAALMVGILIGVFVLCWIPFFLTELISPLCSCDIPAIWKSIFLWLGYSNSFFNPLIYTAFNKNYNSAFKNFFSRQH

[5] = target: T4, Alpha-2B adrenergic receptor (Homo sapiens, UniProt P18089); assay: Binding affinity to alpha2B adrenergic receptor (unknown origin) by radioligand displacement assay
T4 sequence (P18089 whole entry): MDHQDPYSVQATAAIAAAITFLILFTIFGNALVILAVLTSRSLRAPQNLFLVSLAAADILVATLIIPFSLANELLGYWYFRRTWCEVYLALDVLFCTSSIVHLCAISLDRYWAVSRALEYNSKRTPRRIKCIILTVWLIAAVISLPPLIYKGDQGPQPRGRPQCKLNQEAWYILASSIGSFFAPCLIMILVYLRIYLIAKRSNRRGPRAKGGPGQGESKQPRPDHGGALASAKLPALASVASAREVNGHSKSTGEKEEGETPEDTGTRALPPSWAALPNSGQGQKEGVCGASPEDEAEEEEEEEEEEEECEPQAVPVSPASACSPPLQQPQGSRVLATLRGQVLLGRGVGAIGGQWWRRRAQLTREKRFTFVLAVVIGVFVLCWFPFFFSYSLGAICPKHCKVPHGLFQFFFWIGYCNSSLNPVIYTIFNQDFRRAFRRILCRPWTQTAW

[6] = Binding affinity to Sigma2 opioid receptor (unknown origin) by radioligand displacement assay; set-up: species or system Homo sapiens
[7] = target: 5-hydroxytryptamine receptor 7 (Homo sapiens, UniProt P34969); assay: Binding affinity to 5HT7A receptor (unknown origin) by radioligand displacement assay
5-hydroxytryptamine receptor 7, sequence (P34969 whole entry): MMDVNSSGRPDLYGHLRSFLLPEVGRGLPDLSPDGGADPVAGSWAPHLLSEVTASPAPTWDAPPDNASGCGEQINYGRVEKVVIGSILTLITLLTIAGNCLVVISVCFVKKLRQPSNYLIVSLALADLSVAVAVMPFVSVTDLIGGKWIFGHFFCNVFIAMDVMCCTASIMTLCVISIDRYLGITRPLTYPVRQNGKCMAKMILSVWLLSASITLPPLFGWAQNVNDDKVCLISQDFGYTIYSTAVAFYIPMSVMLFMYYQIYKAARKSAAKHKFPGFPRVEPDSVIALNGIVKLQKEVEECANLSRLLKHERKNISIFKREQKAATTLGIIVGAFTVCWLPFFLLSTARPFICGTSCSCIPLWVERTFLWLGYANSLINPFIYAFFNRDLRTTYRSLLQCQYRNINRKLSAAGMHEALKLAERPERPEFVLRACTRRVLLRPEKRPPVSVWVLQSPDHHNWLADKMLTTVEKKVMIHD

[8] = target: T5, Voltage-gated inwardly rectifying potassium channel KCNH2 (Homo sapiens, UniProt Q12809); assay: Binding affinity to hERG by radioligand displacement assay; assay type: toxicity
T5 sequence (Q12809 whole entry): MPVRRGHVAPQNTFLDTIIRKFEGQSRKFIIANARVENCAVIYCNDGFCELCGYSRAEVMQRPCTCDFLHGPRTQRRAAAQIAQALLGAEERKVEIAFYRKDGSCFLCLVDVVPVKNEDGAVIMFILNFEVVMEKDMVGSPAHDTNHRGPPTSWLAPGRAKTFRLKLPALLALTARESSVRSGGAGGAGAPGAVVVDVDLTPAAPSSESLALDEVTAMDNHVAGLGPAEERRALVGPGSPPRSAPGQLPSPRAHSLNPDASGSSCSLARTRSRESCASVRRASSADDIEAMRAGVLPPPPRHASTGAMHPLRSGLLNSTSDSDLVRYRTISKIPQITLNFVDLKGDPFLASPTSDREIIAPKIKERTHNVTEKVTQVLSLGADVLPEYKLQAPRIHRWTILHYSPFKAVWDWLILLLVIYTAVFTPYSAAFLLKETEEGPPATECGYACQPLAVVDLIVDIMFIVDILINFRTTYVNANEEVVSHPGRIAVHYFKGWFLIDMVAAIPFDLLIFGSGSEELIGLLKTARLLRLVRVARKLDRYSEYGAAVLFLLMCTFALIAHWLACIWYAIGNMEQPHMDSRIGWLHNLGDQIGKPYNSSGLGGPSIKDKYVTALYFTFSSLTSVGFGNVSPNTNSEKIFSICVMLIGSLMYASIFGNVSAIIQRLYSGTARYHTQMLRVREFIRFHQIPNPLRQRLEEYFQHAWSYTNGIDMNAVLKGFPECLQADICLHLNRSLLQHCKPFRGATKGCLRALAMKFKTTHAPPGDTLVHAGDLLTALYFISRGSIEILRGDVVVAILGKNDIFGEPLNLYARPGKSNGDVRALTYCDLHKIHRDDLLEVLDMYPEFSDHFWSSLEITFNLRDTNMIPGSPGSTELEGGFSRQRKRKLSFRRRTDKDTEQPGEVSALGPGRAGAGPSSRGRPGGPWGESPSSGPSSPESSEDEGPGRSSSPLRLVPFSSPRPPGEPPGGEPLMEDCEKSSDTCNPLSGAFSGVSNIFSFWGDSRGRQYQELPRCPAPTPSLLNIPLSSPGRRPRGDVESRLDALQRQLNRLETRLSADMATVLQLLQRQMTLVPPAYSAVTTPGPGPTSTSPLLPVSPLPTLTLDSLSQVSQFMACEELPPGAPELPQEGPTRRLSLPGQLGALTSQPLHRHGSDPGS

[9] = target: T6, Alpha-1A adrenergic receptor (Homo sapiens, UniProt P35348); assay: Binding affinity to alpha1A adrenergic receptor (unknown origin) by radioligand displacement assay
T6 sequence (P35348 whole entry): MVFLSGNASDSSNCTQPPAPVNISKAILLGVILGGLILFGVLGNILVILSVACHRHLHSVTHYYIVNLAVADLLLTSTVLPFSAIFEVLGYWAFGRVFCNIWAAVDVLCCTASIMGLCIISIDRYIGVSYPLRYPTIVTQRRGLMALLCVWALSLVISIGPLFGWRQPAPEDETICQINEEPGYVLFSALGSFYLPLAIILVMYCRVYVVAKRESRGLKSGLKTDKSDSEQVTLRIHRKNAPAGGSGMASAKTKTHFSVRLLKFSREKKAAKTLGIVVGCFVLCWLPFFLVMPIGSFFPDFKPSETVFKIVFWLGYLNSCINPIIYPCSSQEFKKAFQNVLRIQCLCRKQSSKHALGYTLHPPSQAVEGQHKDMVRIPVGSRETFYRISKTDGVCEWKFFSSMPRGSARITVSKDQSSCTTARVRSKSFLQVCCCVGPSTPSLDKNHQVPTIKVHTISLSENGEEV

[10] = Binding affinity to alpha7 […] receptor (unknown origin) by radioligand displacement assay; set-up: species or system Homo sapiens
[11] = target: T7, 5-hydroxytryptamine receptor 3A (Homo sapiens, UniProt P46098); assay: Binding affinity to 5HT3 receptor (unknown origin) by radioligand displacement assay
T7 sequence (P46098 whole entry): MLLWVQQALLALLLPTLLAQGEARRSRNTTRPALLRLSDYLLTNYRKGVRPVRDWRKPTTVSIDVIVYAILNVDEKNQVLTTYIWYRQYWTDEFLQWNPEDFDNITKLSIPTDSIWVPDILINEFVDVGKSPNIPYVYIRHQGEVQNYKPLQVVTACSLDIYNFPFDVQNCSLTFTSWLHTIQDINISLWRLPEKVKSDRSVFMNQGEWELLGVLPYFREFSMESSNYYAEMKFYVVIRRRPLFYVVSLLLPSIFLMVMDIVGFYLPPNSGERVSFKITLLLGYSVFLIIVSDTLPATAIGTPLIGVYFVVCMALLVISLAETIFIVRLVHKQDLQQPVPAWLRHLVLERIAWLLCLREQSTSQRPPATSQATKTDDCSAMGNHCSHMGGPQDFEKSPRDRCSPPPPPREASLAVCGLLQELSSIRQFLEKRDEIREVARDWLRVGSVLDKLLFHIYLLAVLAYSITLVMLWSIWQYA

[12] = target: T8, Kappa-type opioid receptor (Homo sapiens, UniProt P41145); assay: Agonist activity at kappa opioid receptor (unknown origin) expressed in human U2OS cells assessed as beta arrestin2 recruitment at <10 uM incubated for 30 mins by PathHunter assay; assay type: functional, cell-based; settings: filed as agonist
T8 sequence (P41145 whole entry): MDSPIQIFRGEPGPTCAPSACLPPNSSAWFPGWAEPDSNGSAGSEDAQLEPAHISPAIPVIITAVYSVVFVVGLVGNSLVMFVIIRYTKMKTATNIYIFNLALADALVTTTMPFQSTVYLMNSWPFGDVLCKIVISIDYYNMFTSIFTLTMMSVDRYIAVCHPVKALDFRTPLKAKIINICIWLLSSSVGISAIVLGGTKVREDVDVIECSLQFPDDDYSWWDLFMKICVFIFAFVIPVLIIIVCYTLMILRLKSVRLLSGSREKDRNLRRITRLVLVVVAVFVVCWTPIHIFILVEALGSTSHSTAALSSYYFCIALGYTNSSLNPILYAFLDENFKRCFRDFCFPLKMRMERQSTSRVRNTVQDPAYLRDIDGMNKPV

[13] = target: T8, Kappa-type opioid receptor; assay: Agonist activity at human kappa opioid receptor expressed in CHO-K1 cells assessed as inhibition of forskolin-stimulated cAMP accumulation by HitHunter assay based luminescence analysis relative to control; assay type: functional, cell-based; settings: filed as agonist
[14] = target: T9, Mu-type opioid receptor (Homo sapiens, UniProt P35372); assay: Agonist activity at human mu opioid receptor expressed in CHO-K1 cells assessed as inhibition of forskolin-stimulated cAMP accumulation by HitHunter assay based luminescence analysis relative to control; assay type: functional, cell-based
T9 sequence (P35372 whole entry): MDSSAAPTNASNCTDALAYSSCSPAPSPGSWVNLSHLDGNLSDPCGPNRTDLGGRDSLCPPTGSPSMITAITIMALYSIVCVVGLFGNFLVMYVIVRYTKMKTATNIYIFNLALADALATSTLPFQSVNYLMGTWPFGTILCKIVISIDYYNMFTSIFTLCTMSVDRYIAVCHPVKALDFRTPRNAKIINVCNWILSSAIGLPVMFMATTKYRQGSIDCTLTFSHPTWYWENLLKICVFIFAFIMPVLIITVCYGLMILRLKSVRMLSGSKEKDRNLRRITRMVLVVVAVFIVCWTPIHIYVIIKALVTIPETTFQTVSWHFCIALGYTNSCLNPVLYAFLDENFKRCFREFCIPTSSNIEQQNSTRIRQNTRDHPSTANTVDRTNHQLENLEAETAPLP

[15] = target: Delta-type opioid receptor (Homo sapiens) (UniProt P41143); assay: Agonist activity at human delta opioid receptor expressed in CHO-K1 cells assessed as inhibition of forskolin-stimulated cAMP accumulation at <1 uM by HitHunter assay based luminescence analysis; assay type: functional, cell-based
Delta-type opioid receptor (Homo sapiens), sequence (P41143 whole entry): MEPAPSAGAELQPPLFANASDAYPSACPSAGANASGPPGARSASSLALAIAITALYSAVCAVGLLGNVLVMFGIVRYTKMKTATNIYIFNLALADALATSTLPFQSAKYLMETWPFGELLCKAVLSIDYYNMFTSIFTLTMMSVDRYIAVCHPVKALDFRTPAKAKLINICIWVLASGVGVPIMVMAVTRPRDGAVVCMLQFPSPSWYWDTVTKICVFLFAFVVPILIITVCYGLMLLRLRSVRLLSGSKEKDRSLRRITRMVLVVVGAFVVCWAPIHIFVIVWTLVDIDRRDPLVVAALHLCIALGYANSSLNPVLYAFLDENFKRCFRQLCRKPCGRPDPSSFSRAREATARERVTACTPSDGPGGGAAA

[16] = target: T8, Kappa-type opioid receptor; assay: Agonist activity at human kappa opioid receptor expressed in CHO-K1 cells assessed as inhibition of forskolin-stimulated cAMP accumulation by HitHunter assay based luminescence analysis; assay type: functional, cell-based
[17] = target: T9, Mu-type opioid receptor; assay: Agonist activity at human mu opioid receptor expressed in CHO-K1 cells assessed as inhibition of forskolin-stimulated cAMP accumulation by HitHunter assay based luminescence analysis; assay type: functional, cell-based
[18] = species: Homo sapiens; assay: Selectivity index, ratio of EC50 for agonist activity at human mu opioid receptor expressed in CHO-K1 cells to EC50 for agonist activity at human kappa opioid receptor expressed in CHO-K1 cells; assay type: cell-based
[19] = target: T5, Voltage-gated inwardly rectifying potassium channel KCNH2; assay: Binding affinity to hERG at 10 uM by radioligand displacement assay; assay type: toxicity
[20] = target: T8, Kappa-type opioid receptor; assay: Agonist activity at kappa opioid receptor (unknown origin) assessed as beta arrestin2 recruitment at 3 uM by PRESTO-Tango assay; assay type: functional; settings: filed as agonist
[21] = target: T8, Kappa-type opioid receptor; assay: Binding affinity to kappa opioid receptor (unknown origin) by radioligand displacement assay
[22] = target: T9, Mu-type opioid receptor
Description: Binding affinity to mu opioid receptor (unknown origin) by radioligand displacement assay

SMILES	Ki [1]	Ki [4]	Ki [5]	Ki [7]	Ki [11]	Emax [13]	Activity [15]	EC50 [16]	other results
C/C=C1/CN2CC[C@]34C(=C(C(=O)OC)[C@H]1C[C@H]23)Nc1ccc(Br)cc14	2910 nM	721 nM	1250 nM	1520 nM	210 nM				Ki [2]: 2880 nM; Ki [3]: > 10000 nM; Ki [6]: 2620 nM; Ki [8]: 1340 nM; Ki [9]: 1000 nM; Ki [10]: 7000 nM
C/C=C1/CN2CC[C@]34C(=C(C(=O)OC)[C@H]1C[C@H]23)Nc1ccc(-c2ccoc2)cc14						102%	inactive		Activity [12]: Active; Less Efficacious Than U50488; Emax ([14]; filed as agonist): 99%
C/C=C1/CN2CC[C@]34C(=C(C(=O)OC)[C@H]1C[C@H]23)Nc1ccc([N+](=O)[O-])cc14						96%	inactive	160 nM	EC50 [17]: 4000 nM; Ratio EC50 [18]: 25; Emax [14]: < 10%
C/C=C1/CN2CC[C@]34C(=C(C(=O)OC)[C@H]1C[C@H]23)Nc1ccccc14 [AKUAMMICINE]	4790 nM	2930 nM	1210 nM	1410 nM	5490 nM	91%		1200 nM	Activity [19]: < 50%; Activity [20]: Active; Ki [21]: 166 nM; Ki [22]: 3730 nM
